Converted amounts (≈) assume the structure as drawn. Where a SMILES comes first, the peptide text is derived from it. [ ]: non-standard residue; d: D form. Nleu = CC(C)CNCC(=O)O; Nlys = NCCCCNCC(=O)O
What was measured:
E. cloacae = details: Table S3; […] MH at pH 8.5
Method in brief: (§1)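 MTT added (20–30 min, room temperature); MIC read by eye as lowest concentration inhibiting visible growth (yellow). Polymyxin B positive control from 16 μg/mL.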

E. coli W3110 = tested on: E. coli W3110
Method in brief: as §1

K. pneumoniae OXA-48 = details: […] MH at pH 8.5
Method in brief: as §1

P. aeruginosa PAO1 = tested on: P. aeruginosa PAO1
Method in brief: as §1

PA14 2P4 (pmrB) = tested on: PA14 2P4 (pmrB)
Method in brief: as §1

PA14 4.13 (phoQ) = tested on: PA14 4.13 (phoQ)
Method in brief: as §1

PA14 4.18 (pmrB) = tested on: PA14 4.18 (pmrB)
Method in brief: as §1

[1] = tested on: ZEM-1A (clinical MDR P. aeruginosa isolate)
Method in brief: as §1

[2] = tested on: human red blood cells (hRBC); experiment: Minimum hemolytic concentration (MHC); assay type: cell-based
Text: We also measured minimal hemolysis concentrations (MHC) on human red blood cells by serial 2-fold dilution as an indication of toxicity against eukaryotic cells (Table 1).

[3] = Circular dichroism, α-helical content; assay type: physicochemical; details: 0.1 mg/mL; for CD %α with 5 mM DPC: 10 mM phosphate buffer pH 7.4, 5 mM DPC; for CD %α with 20% TFE: 10 mM phosphate buffer pH 7.4, 20% TFE
B. cenocepacia = details: 4 h, pH 8.5
Method in brief: as §1

P. aeruginosa PA14 = details: Table S3; […] MH at pH 8.5, 16-20 hours at 37 °C
Method in brief: as §1

S. aureus Newman = details: Table S3; […] MH at pH 8.5
Method in brief: as §1

S. epidermis = details: Table S3; […] MH at pH 8.5
Method in brief: as §1

S. maltophilia = details: Table S3; […] MH at pH 8.5
Method in brief: as §1

HEK293 cells = experiment: Cell viability assay by Alamar blue
Method: The data are represented as the mean value ± SD, n = 3. […] (c) Vesicle leakage assay for a selection of compounds. Lipid vesicles made of EYPG or EYPC were suspended in a buffer (10 mM TRIS, 107 mM NaCl, pH 7.4). After 45 s, the indicated compound was added to reach the desired concentration. After 240 s, 30 μL of 1.2% TritonX-100 was added for full fluorescein release. […] See Supporting Information for the full curves, all of the data, and procedures.
HEK293 cells were cultured and maintained in DMEM high glucose (Dulbecco’s modified Eagle medium, Sigma Aldrich) medium supplemented with 10% FBS (Sigma Aldrich) and 1% penicillin/streptomycin. A549 cells were cultured and maintained in RPMI-1640 medium (Sigma Aldrich), supplemented with 10% FBS (Sigma Aldrich) and 1% penicillin/streptomycin. The cells were handled and subcultured according to the manufacturer instructions. Cells were incubated in a humidified incubator at 37 °C in the presence of 5% CO2.
Assays on HEK293, A549 cells were performed as described earlier.[74] […]

[4] = diluted MH ([…] MH) at pH 8.5 (Table 2 footnote b)

Structure (SMILES): CC(C)C[C@H](NC(=O)CN(CC(C)C)C(=O)[C@H](CC(C)C)NC(=O)CN(CCCCN)C(=O)[C@H](CC(C)C)NC(=O)CN(CC(C)C)C(=O)[C@H](CCCCN)NC(=O)CN(CC(C)C)C(=O)[C@H](CC(C)C)NC(=O)CN(CCCCN)C(=O)[C@@H](N)CCCCN)C(N)=O [EB9, KkLlKlLkLlL] (H-K[Nlys]L[Nleu]K[Nleu]L[Nlys]L[Nleu]L-NH2)
- MIC E. cloacae (E. cloacae): 16 µg/mL (≈ 12.1 µM)
- MIC E. coli W3110, […] MH at pH 7.4 (E. coli W3110; CSV, […] MH at pH 7.4): 2 ug/mL
- MIC E. coli W3110, […] MH at pH 8.5 (E. coli W3110; CSV, […] MH at pH 8.5): 2 ug/mL
- MIC E. coli W3110, full MH at pH 7.4 (E. coli W3110; CSV, full MH at pH 7.4): 16 ug/mL
- Antibacterial activity as a function of NaCl concentration (E. coli W3110; E. coli W3110, […] MH at pH 8.5, up to 300 mM NaCl): strongly reduced
- MIC E. coli W3110 […] 7.4 (E. coli W3110; Table S2, […] MH, pH 7.4): 2 µg/mL (≈ 1.51 µM)
- MIC E. coli W3110 […] 8.5 (E. coli W3110; Table S2, […] MH, pH 8.5): 2 µg/mL (≈ 1.51 µM)
- MIC E. coli W3110 Full MH 7.4 (E. coli W3110; Table S2, full MH, pH 7.4): 16 µg/mL (≈ 12.1 µM)
- MIC E. coli W3110 Full MH 8.5 (E. coli W3110; Table S2, full MH, pH 8.5): > 32 µg/mL
- MIC K. pneumoniae OXA-48, […] MH at pH 8.5 (K. pneumoniae OXA-48; CSV): 32 ug/mL
- MIC K. pneumoniae OXA-48 (K. pneumoniae OXA-48; Table S3): 32 µg/mL (≈ 24.2 µM)
- Antibacterial activity as a function of NaCl concentration (P. aeruginosa PAO1; P. aeruginosa PAO1, […] MH at pH 8.5, up to 300 mM NaCl): strongly reduced
- MIC P. aeruginosa PAO1, full MH at pH 7.4 (P. aeruginosa PAO1; PAO1, 4 h, pH 7.4): 32 ug/mL
- MIC P. aeruginosa PAO1 […] 7.4 (P. aeruginosa PAO1; Table S2, […] MH, pH 7.4): 4 µg/mL (≈ 3.03 µM)
- MIC P. aeruginosa PAO1 […] 8.5 (P. aeruginosa PAO1; Table S2, […] MH, pH 8.5): 2 µg/mL (≈ 1.51 µM)
- MIC P. aeruginosa PAO1 Full MH 7.4 (P. aeruginosa PAO1; Table S2, full MH, pH 7.4): 32 µg/mL (≈ 24.2 µM)
- MIC P. aeruginosa PAO1 Full MH 8.5 (P. aeruginosa PAO1; Table S2, full MH, pH 8.5): > 32 µg/mL
- MIC P. aeruginosa PA14 2P4, […] MH at pH 8.5 (PA14 2P4 (pmrB); CSV, […] MH at pH 8.5): 4 ug/mL
- MIC PA14 2P4 (pmrB) (PA14 2P4 (pmrB); [4]): 4 µg/mL (≈ 3.03 µM)
- MIC P. aeruginosa PA14 4.13, […] MH at pH 8.5 (PA14 4.13 (phoQ); CSV, […] MH at pH 8.5): 2 ug/mL
- MIC PA14 4.13 (phoQ) (PA14 4.13 (phoQ); [4]): 2 µg/mL (≈ 1.51 µM)
- MIC P. aeruginosa PA14 4.18, […] MH at pH 8.5 (PA14 4.18 (pmrB); CSV, […] MH at pH 8.5): 6 ug/mL
- MIC P. aeruginosa PA14 4.18 (PA14 4.18 (pmrB); Table S3, […] MH at pH 8.5): 4 to 8 µg/mL
- MIC PA14 4.18 (pmrB) (PA14 4.18 (pmrB); [4]): 4 to 8 µg/mL
- MIC P. aeruginosa ZEM-1A, […] MH at pH 8.5 ([1]; CSV, […] MH at pH 8.5): 3 ug/mL
- MIC P. aeruginosa ZEM-1A ([1]; Table S3, […] MH at pH 8.5): 2 to 4 µg/mL
- MIC ZEM-1A [1, 4]: 2 to 4 µg/mL
- Hemolysis [2]: none of them showed any measurable hemolysis
- MHC [2]: >2000 µg/mL
- CD %α with 5 mM DPC ([3]; DichroWeb, Contin-LL): 11%
- CD %α with 20% TFE ([3]; DichroWeb, Contin-LL): 13%
- CD %α with 5 mM DPC ([3]; Table S2): 11%
- CD %α with 20% TFE ([3]; Table S2): 13%
- MIC B. cenocepacia (B. cenocepacia): >32 µg/mL
- MIC P. aeruginosa PA14 (P. aeruginosa PA14): 2 µg/mL (≈ 1.51 µM)
- MIC S. aureus Newman (S. aureus Newman): 4 µg/mL (≈ 3.03 µM)
- MIC S. epidermis (S. epidermis): 2 µg/mL (≈ 1.51 µM)
- MIC S. maltophilia (S. maltophilia): 8 µg/mL (≈ 6.05 µM)
- Toxicity against HEK293 cells, no effect detected up to (HEK293 cells): > 200 µM
- IC50 (HEK293 cells; read-out: Toxicity on HEK293 cells, CSV): > 200 µM

From publication PMC10714400, “Antimicrobial Peptide–Peptoid Hybrids with and without Membrane Disruption” (ACS Infectious Diseases, 2023)
